Measurements as given in publication PMC11504489, “Potent Biological Activity of Fluorinated Derivatives of 2-Deoxy-D-Glucose in a Glioblastoma Model” (Biomedicines, 2024).

Molecular target: T1, hexokinase II (HKII) (Homo sapiens, UniProt P52789)
T1 construct: gene HK2; recombinant HKII expressed in E. coli, first 16 aa from the N-terminal removed
T1 sequence (P52789 17-917): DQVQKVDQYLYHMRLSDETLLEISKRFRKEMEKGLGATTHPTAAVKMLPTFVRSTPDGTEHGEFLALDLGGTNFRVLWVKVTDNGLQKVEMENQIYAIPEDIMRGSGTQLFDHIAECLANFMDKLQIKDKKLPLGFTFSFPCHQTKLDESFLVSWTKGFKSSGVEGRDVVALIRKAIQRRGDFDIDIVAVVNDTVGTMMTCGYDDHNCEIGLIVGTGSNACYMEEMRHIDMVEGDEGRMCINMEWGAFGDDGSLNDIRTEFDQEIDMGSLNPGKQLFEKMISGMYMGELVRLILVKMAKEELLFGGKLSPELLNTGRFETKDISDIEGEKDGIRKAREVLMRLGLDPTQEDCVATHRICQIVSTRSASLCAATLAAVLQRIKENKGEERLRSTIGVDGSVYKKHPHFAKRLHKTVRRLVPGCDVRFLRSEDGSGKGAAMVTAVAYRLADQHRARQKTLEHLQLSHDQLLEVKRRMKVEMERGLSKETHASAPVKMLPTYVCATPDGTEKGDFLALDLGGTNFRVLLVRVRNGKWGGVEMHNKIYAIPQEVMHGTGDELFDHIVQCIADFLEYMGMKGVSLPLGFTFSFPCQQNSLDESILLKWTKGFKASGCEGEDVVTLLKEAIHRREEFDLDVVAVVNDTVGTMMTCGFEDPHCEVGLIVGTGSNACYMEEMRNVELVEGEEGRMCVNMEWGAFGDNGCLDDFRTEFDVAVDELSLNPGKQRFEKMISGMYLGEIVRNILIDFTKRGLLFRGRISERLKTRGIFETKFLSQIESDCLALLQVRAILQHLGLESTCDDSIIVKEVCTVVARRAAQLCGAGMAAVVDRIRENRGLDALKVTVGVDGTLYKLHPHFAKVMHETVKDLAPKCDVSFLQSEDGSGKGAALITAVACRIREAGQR
Assay: […] NMR CPMG transverse relaxation titration
Type: binding
Conditions: read-out: Kα [mol m^-3]

Kd: 960 ± 200 µM
Structure (SMILES): OC[C@H]1OC(O)C(F)(F)[C@@H](O)[C@@H]1O (mixture of isomers) [2,2-diFG, 2-deoxy-2,2-difluoro-D-glucopyranose]
